Results from publication PMC5773487, “Harnessing insulin- and leptin-induced oxidation of PTP1B for therapeutic development” (Nature Communications, 2018).
Numbering of substitutions follows the chain as printed. Where “and” joins values, the source holds several entries; their conditions need not be identical. Equal entries are not always repeated. Where two headings read alike, the source gives them in different places.

Assays:
[1] = molecular target: T1, K36A/K41A PTP1B-OX mutant (Homo sapiens, UniProt P18031, K36A/K41A); assay: reduction and reactivation of oxidized PTP1B-K36A/K41A, DiFMUP, TCEP; type: biochemical
T1 construct: PTP1B (1–321) and TCPTP (1–317) cloned in pET21b vector were used as templates; 6xHis (C); made in house; host or cells: E. coli BL21 (DE3)-RIL
T1 sequence (P18031 1-321 K36A/K41A): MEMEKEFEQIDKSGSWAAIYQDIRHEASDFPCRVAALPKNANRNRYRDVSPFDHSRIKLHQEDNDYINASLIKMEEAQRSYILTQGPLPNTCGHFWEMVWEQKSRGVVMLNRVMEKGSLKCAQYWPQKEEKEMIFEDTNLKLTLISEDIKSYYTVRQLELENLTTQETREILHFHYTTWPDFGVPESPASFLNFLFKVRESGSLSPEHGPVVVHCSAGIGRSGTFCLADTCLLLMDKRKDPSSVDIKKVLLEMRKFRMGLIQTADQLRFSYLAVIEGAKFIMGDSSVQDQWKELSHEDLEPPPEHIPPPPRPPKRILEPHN
Protocol: Fig. 5 Chelerythrine and scFv45 inhibit reactivation of PTP1B-OX by a similar mechanism. a Molecular modeling of chelerythrine binding to PTP1B-OX, with critical residues for the interaction highlighted on the right. b Oxidized PTP1B-wt (circle), PTP1B-K36A/K41A (square) were incubated with increasing concentrations of chelerythrine (0–10 mM) and phosphatase activity was measured using DiFMUP as substrate in the presence of the reducing agent TCEP (5 mM). c Oxidized PTP1B-wt (circle), PTP1B-mut1 (square), or PTP1B-mut2 (diamond) were incubated with increasing concentrations of chelerythrine (0–10 mM) and phosphatase activity was measured using DiFMUP as substrate in the presence of the reducing agent TCEP (5 mM). Individual data points represent the mean obtained from three separate experiments (n = 3; b, c). d Overlay of crystal structures of the reduced (blue) and oxidized (gray) form of PTP1B.

[2] = molecular target: T2, PTP1B-CASA (Homo sapiens, UniProt P18031, C215A/S216A); assay: isothermal titration calorimetry; type: binding; details: 25°C
T2 construct: PTP1B (1–321) and TCPTP (1–317) cloned in pET21b vector were used as templates; 6xHis (C); made in house; host or cells: E. coli BL21 (DE3)-RIL
T2 sequence (P18031 1-321 C215A/S216A limits assumed): T1 sequence (P18031 1-321 K36A/K41A) with A36K, A41K, C215A, S216A
Protocol: The studies were performed using a VP-ITC system from GE Healthcare. All titrations were performed at 25°C in de-gassed buffer (50 mM HEPES pH 7.0, 100 mM NaCl, 2 % DMSO, and 1 mM TCEP). The protein concentrations of PTP1B-CASA and PTP1B-CASA-mut2 were each 50 μM. Protein samples used in ITC were dialyzed completely against the buffer. Inhibitor (10 mM) in DMSO was diluted to make a stock solution of 0.2 mM in de-gassed buffer, which was then used as titrant in the syringe. The instrument was calibrated by using the heat of dilution of NaCl in water. […] The heat of ligand dilution was corrected by subtracting the average heat of injection after saturation. Origin software was used to fit and analyze the data.

[3] = molecular target: T3, PTP1B-OX (Homo sapiens, UniProt P18031); assay: displacement assay of scFv antibodies from PTP1B-OX; type: binding; details: chelerythrine 0–20 μM
T3 construct: Purified PTP1B (1–321) (100 nM) was mixed with increasing concentrations of H2O2; 6xHis (C); made in house; host or cells: E. coli BL21 (DE3)-RIL
T3 sequence (P18031 1-321): T1 sequence (P18031 1-321 K36A/K41A) with A36K, A41K
Protocol: To test whether there was overlap in the binding site for chelerythrine and scFv antibodies that stabilized PTP1B-OX, we performed an in vitro competition binding assay using purified components. […] We focused on scFv106 and scFv67. Purified PTP1B (50 nM) was reversibly oxidized with 250 µM H2O2 followed by a buffer exchange to remove excess H2O2. Increasing concentration of purified scFv antibody (0–10 µM) was incubated with oxidized proteins in binding buffer (20 mM HEPES pH 7.4, 300 mM NaCl, 0.05% BSA, 0.05% Tween-20) for 2 h at 4 °C. Anti-HA agarose (Roche, 50% slurry equilibrated in the binding buffer) was added and incubated for 1 h at 4 °C. Protein complexes bound to anti-HA beads were precipitated and washed three times; first with lysis buffer followed by two more washes with wash buffer (25 mM HEPES pH 7.4, 100 mM NaCl, 0.05% BSA, 0.05% Tween-20, and protease inhibitors). The protein complex was incubated with varying concentrations of chelerythrine (0–20 µM) for 2 h at 4 °C, following which the beads were washed as described above. The complexes were resolved by SDS-PAGE and analyzed by immunoblotting.

COc1ccc2c(c[n+](C)c3c4cc5c(cc4ccc23)OCO5)c1OC [chelerythrine]
IC50 ([1]; TCEP 5 mM, DiFMUP, read-out: IC50 against K36A/K41A PTP1B-OX mutant): 75 µM
inhibition of PTP1B-OX relative to K36AK41A PTP1B-OX ([1]; reviewer's summary in peer review file): 15 fold
Kd ([2]; read-out: binding constant for PTP1B-CASA by ITC): 3 µM
Kd ([2]; independent experiments, read-out: affinity for PTP1B-CASA by ITC): 3.25 µM and 2.83 µM and 3.44 µM
competition with scFv106 for binding to PTP1B-OX [3]: competed
